Patent US20100235931A1, “Novel Neurological Function of mPKCI” (priority 2006, published 2010)
Entries after “also recorded” stand apart in the source; their conditions may differ.

Tests used:
[1] = tested on: PKCI/HINT1 WT and KO mice; assay: Tail suspension test, effect of haloperidol; type: in vivo
From the text: In order to confirm the results of the forced swim test while removing any bias introduced by the animal's swimming or learning capacity, we used the tail suspension test. This test assesses depression trait using coping behavior in a stressful situation (Cryan J F et al., 2005, Neruosc. Behav. Rev. 29, 571-625). The animals are exposed to a […] stress of being hung in an uncontrollable fashion by the tail for six minutes. Immobility, considered as a depression trait when the animal gives up any escape, is reported in seconds. Data are expressed as mean+/−SEM and analyzed using a 2 way ANOVA (age×genotype) followed by Bonferroni when p<0.05.
Haloperidol 0.05 mg/kg and 0.1 mg/kg were administered via intra-peritoneal (10 ml/kg) 30 minutes before the test. Data are expressed as mean+/−SEM and analyzed using a 2 way ANOVA (treatment×genotype) followed by Bonferroni when p<0.05.

mice [2] = settings: previously described; cited from earlier work
PKCI KO mice = assay: Conditional place preference test; type: in vivo; settings: preliminary data
From the text: Finally, we are looking at the involvement of PKCI in the rewarding function in PKCI KO mice. In this study, we are testing the response of the KO mice to the reward action of amphetamine and cocaine by using conditional place preference test.

[3] = tested on: extracellular DA in nucleus accumbens and caudate-putamen of mPKCI WT and KO mice; assay: In vivo microdialysis, amphetamine-evoked extracellular DA; settings: 2.5 mg/kg ip, conventional microdialysis, FIG. 4
Description: PKCI^−/− mice and their WT controls were anesthetized and implanted unilaterally with a microdialysis guide cannula (CMA/11, CMA microdialysis) in the nucleus accumbens (AP: +1.5, L: −0.8, V: −3.8 from bregma) or the dorsal striatum (AP: +0.4, L−2.1, V−2.2 from bregma) using standard stereotaxic techniques, and allowed to recover for 5 days prior to the microdialysis experiment as described. […]
For no net flux experiments, five different concentrations of DA (0, 5, 10, 20 and 40 nM) in aCSF were perfused in random order through the dialysis probe. […] The DA content was determined by HPLC coupled to electrochemical detection with an external standard. All the samples were analyzed within 48 hours of collection. […] No net flux data was analyzed as described (Chefer et al 2006, supra). The net flux of DA through the probe (DAin-DAout) was calculated and plotted against the concentration of DA perfused (DAin). The following parameters were calculated from the resulting linear function. […] In the conventional microdialysis experiments investigating the effects of amphetamine, the average of the three baseline samples was calculated, and all the DA concentrations were expressed as % of baseline. […]

mPKCI WT and KO mice = assay: Locomotor activity measurement (open field, ambulation and stereotypy); type: in vivo
Description: The generation of PKCI^−/− mice was described previously (Su et al, 2003, supra). PKCI^−/− mice and their wild type littermates were derived by breeding heterozygous […] mice for altered PKCI allele (Hint1) and genotype of the animals was confirmed by PCR of DNA from tail biopsies. Animals were housed 4-6/cage, maintained under standard laboratory condition with food and water provided ad libitum. The male animals were tested between 10-20 weeks of age. Wild type and PKCI^−/− groups were matched for age in all experiments. All studies were conducted with an approved protocol from University of Maryland, School of Pharmacy IACUC.
Mice locomotor activity was monitored during an open field test using “Activity Monitor” chambers (27×27×20.3 cm) associated with the Activity Monitor software (Med Associates Inc St Albans Vt.). Room temperature was set at 23° C.+/−2° C. Horizontal spontaneous locomotion activity, scored as ambulatory counts and stereotypic movements (Sanberg P. R. et al 1987, Pharmacol. Biochem. Behav. 27, 569-72), was recorded during the first 30 min of acclimatization to the novel environment and during 120 min following the treatment. The animals were acclimated to a 12 h cycle light/dark phase with the light on at 7:00 am before the experiments. Tests were performed during the light phase of the cycle between 8:00 am to 3:00 pm. AMPH or other drugs was prepared freshly before each experiment by dissolving in saline (NaCl 0.9%) and administered via intra peritoneal in a total volume of 10 ml/kg at the indicated doses.

mice [4] = settings: 10 mg/kg dose; cited from earlier work

## O=C(CCCN1CCC(O)(c2ccc(Cl)cc2)CC1)c1ccc(F)cc1 [Haloperidol]
[1]; 0.05 mg/kg and 0.1 mg/kg i.p. 30 minutes before the test, WT and KO, FIG. 8
  immobility compared with saline treatment: increased immobility in both WT and KO animals
[1]; 0.1 mg/kg, 3 months and 15 months old
  increase in immobility in KO mice relative to WT level: reaching the level attained by WT animals
Mice [2]
  mice immobility in the tail suspension test: increase mice immobility

## C[C@H](N)Cc1ccccc1 [amphetamine, D-amphetamine]
PKCI KO mice
  response of KO mice to reward action: higher response
[3]
  amphetamine-evoked DA response, WT vs KO: No significant difference between WT and KO mice; also recorded: did not differ in WT and KO animals
mPKCI WT and KO mice; AMPH 2.5 mg/kg i.p., 120 min after treatment, WT and KO mice, FIG. 2
  effect on locomotion: increased locomotion in both WT and KO animals
mPKCI WT and KO mice; AMPH 2.5 mg/kg i.p., KO vs WT
  amphetamine-evoked locomotor response, PKCI KO compared with WT: three times more
mPKCI WT and KO mice; D-AMPH 1.25, 2.5 and 5 mg/kg i.p., FIG. 3
  increase in amphetamine-evoked activity in mPKCI KO mice, dose response: consistent across a range of amphetamine doses

## CN1CCc2cccc3c2[C@H]1Cc1ccc(O)c(O)c1-3 [apomorphine]
mPKCI WT and KO mice; apomorphine 10 mg/kg i.p., FIG. 5
  locomotor activity (total ambulation and stereotyped behavior), KO compared with WT: significantly higher locomotor activity as compared with WT

## CN1CC[C@]23c4c5ccc(O)c4O[C@H]2[C@@H](O)C=C[C@H]3[C@H]1C5 [morphine]
Mice [4]
  locomotion: a decrease in locomotion was often observed
mPKCI WT and KO mice; morphine 10 mg/kg i.p., 120 min after treatment, WT and KO mice, FIG. 2
  effect on locomotor activity: did not promote increase in locomotor activity; also recorded: depressive locomotor effect on both wild type and knockout mice
